Data from patent publication US8969333B2, “Therapeutic compositions and methods” (The Penn State Research Foundation, priority 2010, dated 2015).
pIC50: −log10 of the molar value. Read-outs that look alike come from different tables or passages of the source.

Columns and labels:
[1] = test system: p53 and its target genes; experiment: RT-qPCR and Western blot of p53 and its target genes in U2OS cells; format: cell-based, human; conditions: U2OS cells
Procedure: Western blot and immunostaining was performed essentially as described in Li, P. et al., Oncogene 29 (21), 3153-3162 (2010). Antibodies used in Western blot were anti-p53 (Sigma), anti-PAD4, anti-p21 (Sigma), anti-PUMA (Calbiochem), anti-SESN2 (Abeam), anti-p70S6K (Cell Signaling), anti-p70S6K-pT389 (Cell Signaling), anti-LC3 (Cell Signaling) and anti-β-actin (Sigma) at appropriate dilutions. Anti-LC3B antibody (Cell Signaling) was used for immunostaining. DNA was stained by the DNA dye Hoechst.
RNA was extracted using RNeasy Mini Kit (Qiagen) per manufacturer's instructions. 1 μg RNA was reverse transcribed into cDNA using qScript cDNA SuperMix (Quanta Biosciences) per manufacturer's instructions. Quantitative PCR was performed using SYBR Green SuperMix (Quanta Biosciences) in StepOnePlus Real-Time PCR System (Applied Biosystems). FIG. 10 is a graph showing p53 and its target gene expression induced in S180 cells by YW3-56 in a concentration dependent manner.
U2OS and S-180 cells were cultured in Dulbecco modified Eagle medium (DMEM) supplemented with 10% fetal bovine serum and 1% penicillin-streptomycin in a 5% CO2 incubator. U2OS p53-shRNA and U2OS Ctrl-shRNA cells were generated as described in Li, P. et al., Regulation of p53 target gene expression by peptidylarginine deiminase 4. Mol Cell Bial 28 (15), 4745-4758 (2008). Concentrations and duration of YW3-56 treatment were performed as specified in the figures and text. For starvation assay, U2OS cells were first cultured in serum-free DMEM for 16 hr, 10% fetal bovine serum and different concentrations of YW3-56 was then added back and cells were further incubated for 8 hr before further analyses. SESN2 siRNA (Santa Cruz) and GFP siRNA (Dharmacon Inc.) were transfected into U2OS cells using the XtremeGene siRNA transfection reagents (Roche Inc.). Cells were incubated in the presence of the siRNA for 48 hr before adding YW3-56 and further incubated for 8 hr before analyses.
The relative abundance of each gene is compared with β-actin as a reference. Increase in several p53 target genes, such as p21, GADD45, PUMA, OKL38, DRAM, and Sestrin2, is detected after YW3-88 treatment at 12 μM concentration. […] Increase in p21 and PUMA proteins is detected.

[2] = target: PAD4 (Homo sapiens (Human), UniProt Q9UM07); experiment: PAD4 enzyme activity colorimetric assay (citrullination of BAEE); format: biochemical; conditions: 0.2 μg PAD4, 5 mM BAEE, 37° C.
PAD4, sequence (Q9UM07 whole entry, species assumed): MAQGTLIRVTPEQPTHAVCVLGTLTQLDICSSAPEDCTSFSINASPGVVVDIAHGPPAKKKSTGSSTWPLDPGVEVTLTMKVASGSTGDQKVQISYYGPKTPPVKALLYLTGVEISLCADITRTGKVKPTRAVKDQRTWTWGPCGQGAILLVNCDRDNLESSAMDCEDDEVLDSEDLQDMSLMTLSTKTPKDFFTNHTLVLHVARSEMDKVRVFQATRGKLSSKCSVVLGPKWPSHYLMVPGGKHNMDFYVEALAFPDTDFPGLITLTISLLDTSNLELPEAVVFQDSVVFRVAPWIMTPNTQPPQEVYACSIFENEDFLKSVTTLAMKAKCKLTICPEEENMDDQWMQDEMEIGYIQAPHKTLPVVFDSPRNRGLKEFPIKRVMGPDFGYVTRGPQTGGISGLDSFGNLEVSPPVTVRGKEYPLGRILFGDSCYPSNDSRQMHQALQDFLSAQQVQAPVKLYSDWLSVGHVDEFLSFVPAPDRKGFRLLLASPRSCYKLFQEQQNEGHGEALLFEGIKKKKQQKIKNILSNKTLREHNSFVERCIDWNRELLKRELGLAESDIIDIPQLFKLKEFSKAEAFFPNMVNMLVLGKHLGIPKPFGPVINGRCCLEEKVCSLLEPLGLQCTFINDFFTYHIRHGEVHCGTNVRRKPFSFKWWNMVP
Procedure: PAD4 enzyme activity assays are conducted to determine PAD4 inhibitory activity. PAD4 inhibition efficacy of the inhibitors is determined using a colorimetric assay for citrullination production.
The inhibition efficacy of PAD4 inhibitors were determined by colorimetric measurement of citrulline generated by PAD4 catalyzed citrullination of BAEE. 0.2 μg PAD4 was pre-incubated with inhibitors in 100 μl buffer containing 50 mM Tris-HCl pH7.6, 5 mM CaCl2, 2 mM DTT for 0.5 hr at 37° C. The reaction was started by the addition of BAEE to 5 mM and halted 1.5 hr later with the addition of 25 μl 5 M HClO4. Then the samples were briefly centrifuged at 12000 rpm for 2 min at 4° C. and the supernatant (120 μl) were assayed for citrulline by mixing with 120 μl reagent A (0.5% w/v diacetyl monoxime and 15% w/v NaCl in water) and 240 μl reagent B (1% w/v antipyrine, 0.15% w/v ferric chloride, 25% v/v H2SO4 and 25% v/v H3PO4). The mixtures were boiled for 15 min and cooled to room temperature in ice bath. The absorbance of the reagent mixtures at 464 nm was measured by Thermo BioMate™ 3 spectrophotometer. Efficacies of inhibitors are indicated as relative PAD4 citrullination activity by normalizing the PAD4 activity without inhibitor treatment to 100%.

[3] = test system: U2OS human osteosarcoma cells; experiment: MTT assay of U2OS cancer cell growth inhibition; format: cell-based; conditions: for pIC50: read-out: 50% inhibition Cell growth, U2OS cells, MTT, 72 hr; for U2OS cell growth in MTT assay: 20 μM, 3 days
Procedure: MIT assays are conducted to evaluate activity to inhibit cancer cell growth. U2OS human osteosarcoma cells were treated with individual compounds at different concentrations for 72 hr in 24-well plates. MIT reagent was added to a final concentration of 0.5 mg/ml and further incubated for 4 hr. The yellow-colored MTT was reduced to insoluble purple-colored Formazan in living cells. Culture medium was removed and DMSO was added to dissolve Formazan into solution. The absorbance of the solution was then measured at 570 nm using a Thermo BioMate™ 3 spectrophotometer. Results are shown in FIG. 1 and average and standard deviations are shown (n>=3).
Cells were treated with individual compounds at different concentrations for 72 hr in 24-well plates. MTT reagent was added to a final concentration of 0.5 mg/ml and further incubated for 4 hr. The yellow-colored MTT was reduced to insoluble purple-colored Formazan in living cells. Culture medium was removed and DMSO was added to dissolve Formazan into solution. The absorbance of the solution was then measured at 570 nm using a Thermo BioMate™ 3 spectrophotometer.

[4] = test system: human HL-60 granulocytic cells; conditions: HL-60 granulocytic cells (Wang et al., 2009); cited from earlier work
[5] = test system: PAD4-/- mouse neutrophils; experiment: Histone citrullination, enlarged nucleus and NET formation in PAD4-/- neutrophils; format: cell-based; conditions: U.D. = undetectable
Procedure: (§1) NET formation is induced after lipopolysaccharides (LPS) and phorbol myristate acetate (PMA) treatment in human neutrophils (Brinkmann et al., 2004). To test whether PAD4 is important for chromatin decondensation and NET formation upon LPS treatment, immunostaining experiments are performed. Before LPS treatment, ˜3.69% of PAD4^+/+ neutrophils are positively stained for histone H3 citrullination but NET formation is not detected, while histone H3 citrullination or NET formation is not observed in PAD4^−/− neutrophils. After LPS treatment, an increase in histone H3 citrullination is detected in PAD4^+/+ but not in PAD4^−/− neutrophils by Western blotting or immunostaining analyses. […] The decondensed chromatin induced by LPS is positively stained by histone H3 citrullination and neutrophil elastase antibodies, indicating these structures are indeed NETs. […] Furthermore, chromatin decondensation and histone citrullination are detected in PAD4^+/+ but not in PAD4^−/− neutrophils after PMA treatment.
(§2) Table II illustrates the efficacy of LPS, PMA, and H2O2 in inducing chromatin structure changes in PAD4^+/+ and PAD4^−/− neutrophils. […] PAD4 is required for NET formation after stimulation of neutrophils.

[6] = test system: PAD4+/+ mouse neutrophils; experiment: Histone citrullination, enlarged nucleus and NET formation in PAD4+/+ neutrophils; format: cell-based; conditions: for NET formation, percentage of neutrophils / Histone citrullination, percentage of positive neutrophils / Enlarged nucleus, percentage of neutrophils: PAD4+/+; for NET formation, percentage of neutrophils / Enlarged nucleus, percentage of neutrophils: Cl-amidine 200 μM 30 min prior to LPS; for Histone citrullination, percentage of positive neutrophils: Cl-amidine 200 μM 30 min prior to LPS for 3 hr; for Enlarged nucleus, percentage of neutrophils: nuclear diameter over 1.5 fold larger
Procedure: as §1, §2

[7] = Body and vital organ weight after 1 week of treatment; format: in vivo, mouse
Procedure: S180 ascites tumor cells were used to form solid tumors after subcutaneous injection essentially as described in Wang, W. et al., Mol. Biosyst., 2011, 7:766-772. In brief, for initiation of subcutaneous tumors, the cells were obtained as an ascitic form from the tumor-bearing mice, which were serially transplanted once per week. Subcutaneous tumors were implanted by injecting 0.2 ml of 0.9% saline containing 1×10^7 viable tumor cells under the skin on the right armpit. 24 hr after implantation, male ICR mice were randomly divided into experimental groups. The mice in the positive control group were given a daily i.p injection of 2 mg/kg of doxorubicin in 0.2 ml of 0.9% saline for 7 consecutive days. The mice in the negative control group were given a daily i.p injection of 0.2 ml of 0.9% saline for 7 consecutive days. […] The weights of the mice were recorded every day. […]
FIG. 13A-13F show weight of whole body, FIG. 13A; brain, FIG. 13B; heart, FIG. 13C; liver, FIG. 13D; kidney, FIG. 13E; and spleen, FIG. 13F measured in mice after 1 week of treatment with daily intraperitoneal injection of control PBS, YW3-56 at 10 mg/kg body weight, SAHA at 5 mg/kg body weight, a mixture of YW3-56 at 5 mg/kg body weight and SAHA at 2.5 mg/kg body weight, or doxorubicin at 2 mg/kg body weight. * in (f) denotes a loss of spleen weight after doxorubicin treatment.

[8] = test system: S180 tumor; experiment: Sarcoma S180 cell-derived mouse tumor model; format: in vivo; conditions: SAHA 5 mg/kg daily for 1 week
From the text: A well-established sarcoma S180 cell-derived mouse tumor model is used in this example to determine the effects of PAD4 inhibitors of the present invention on tumor growth in mice.
S180 ascites tumor cells were used to form solid tumors after subcutaneous injection essentially as described in Wang, W. et al., Mol. Biosyst., 2011, 7:766-772. In brief, for initiation of subcutaneous tumors, the cells were obtained as an ascitic form from the tumor-bearing mice, which were serially transplanted once per week. Subcutaneous tumors were implanted by injecting 0.2 ml of 0.9% saline containing 1×10^7 viable tumor cells under the skin on the right armpit. 24 hr after implantation, male ICR mice were randomly divided into experimental groups. The mice in the positive control group were given a daily i.p injection of 2 mg/kg of doxorubicin in 0.2 ml of 0.9% saline for 7 consecutive days. The mice in the negative control group were given a daily i.p injection of 0.2 ml of 0.9% saline for 7 consecutive days. The mice in the treatment groups were given a daily i.p injection of YW3-56 (10 mg/kg), SAHA (5 mg/kg), or a combination of YW3-56 (5 mg/kg) and SAHA (2.5 mg/kg) for 7 consecutive days. The weights of the mice were recorded every day. 24 hr after the last administration, all mice were weighed, euthanized and immediately dissected to obtain and weigh the tumor and vital organs.

[9] = read-out: 50% inhibition PAD4 activity

Row | Compound | pIC50 [2, 9] | pIC50 ([3]; Homo sapiens) | Enlarged nucleus, percentage of neutrophils [5] | Histone citrullination, percentage of positive neutrophils [5] | NET formation, percentage of neutrophils [5] | NET formation, percentage of neutrophils [6] [%^5] | Histone citrullination, percentage of positive neutrophils [6] [%^5] | Enlarged nucleus, percentage of neutrophils [6] [%^5] | other results
1 | N=C(CCl)NCCC[C@H](NC(=O)c1ccccc1)C(=O)NCc1ccccc1 [BL1-07] | < 4.70 | 4.70 to 5.00 |  |  |  |  |  |  | induction of p53 and its target genes ([1]; even at higher concentrations): less potent
2 | NC(=O)[C@H](CCCN=C(N)CCl)NC(=O)c1ccccc1 [Cl-amidine] |  |  | U.D. | U.D. | U.D. | 0.32 ± 0.3 | 8.1 ± 1.3 | 1.2 ± 0.2 | formation of NET-like structure [4]: represses the formation of NET-like structure; pIC50 [3]: 3.70 to 3.82; histone H3 citrullination and chromatin decondensation induced by LPS ([6]; pretreatment of PAD4+/+ mouse neutrophils): significantly decreases
3 | CCCCCCCCCCCCCC(=O)O[C@@H]1[C@@H](C)[C@@]2(O)[C@@H](C=C(CO)C[C@]3(O)C(=O)C(C)=C[C@@H]23)[C@@H]2C(C)(C)[C@]12OC(C)=O [PMA, phorbol myristate acetate] |  |  | U.D. | U.D. | U.D. | 2.7 ± 0.5 | 48.5 ± 3 | 10.9 ± 0.3 | 
4 | O=C(CCCCCCC(=O)Nc1ccccc1)NO [SAHA, suberoylanilide hydroxamic acid, reference compound] |  |  |  |  |  |  |  |  | mouse growth and vital organ size ([7]; daily i.p. injection for 1 week): Neither SAHA alone nor mixtures of YW3-56 and SAHA impair; growth of S180 tumor relative to control group [8]: ~44.6%
5 | OO [Structure H2O2, H2O2] |  |  | U.D. | U.D. | U.D. | 3 ± 0.3 | 48.3 ± 5.4 | 13.4 ± 1.4 | 
6 | N=C(CCl)NCCC[C@H](NC(=O)c1ccc(-c2ccccc2)cc1)C(=O)NCc1ccccc1 [YW3-88] | < 4.70 | ~5.00 |  |  |  |  |  |  | p21 and PUMA proteins by Western blot [1]: Increase; p53 target gene mRNA (p21, GADD45, PUMA, OKL38, DRAM, Sestrin2) ([1]; 12 μM): Increase; U2OS cell growth in MTT assay [3]: abolished cell growth
7 | N=C(CCl)NCCC[C@H](NC(=O)c1cccc(-c2ccccc2)c1)C(=O)NCc1ccccc1 [YW4-03] | ~5.30 | 5.30 to 5.60 |  |  |  |  |  |  | U2OS cell growth in MTT assay [3]: abolished cell growth
8 | CN(C)c1ccc2cc(C(=O)N[C@@H](CCCNC(=N)CCl)C(=O)NCc3ccc(NC(=O)CCCNC(=O)CCCCC4SCC5NC(=O)NC54)cc3)ccc2c1 (some centres unmarked) [YW4-15] |  | 4.30 to 4.70 |  |  |  |  |  |  | pIC50 [2]: 5.30 to 6.00
9 | COc1cccc2c1C(=O)c1c(O)c3c(c(O)c1C2=O)C[C@@](O)(C(=O)CO)C[C@@H]3O[C@H]1C[C@H](N)[C@H](O)[C@H](C)O1 [doxorubicin] |  |  |  |  |  |  |  |  | size of spleen relative to control mice ([7]; doxorubicin 2 mg/kg i.p. daily for 1 week): ~50%
10 | lipopolysaccharides [LPS] |  |  | U.D. | U.D. | U.D. | 9.5 ± 0.5 | 42.3 ± 3.9 | 23.4 ± 2.7 | nuclear area increase in size (swelling nuclei) ([6]; PAD4+/+ neutrophils after LPS treatment, NIH image J): ~3.5 fold
